Laboratory results taken from patent US20240428951A1, “METHODS AND SYSTEMS FOR PERSONALIZED IN-SILICO HEMATOPOIESIS AND DISEASE/LEUKEMIA SIMULATION FOR TREATMENT SELECTION AND OPTIMIZATION” (GEORGIA TECH RESEARCH CORPORATION, priority 2021, published 2024).

Experiments:
leukemic blasts = experiment: Patient leukemia response to treatment (percentage of leukemic blasts in BM, clinical assessments compared with simulation); assay type: in vivo, human; details: one patient
Excerpt: FIGS. 9A and 9B show examples of visual representations of retrospective comparisons of dynamic prediction of the overall percentage of abnormal cells/leukemic blasts (lines) determined using the method according to embodiments and patient clinical assessments (dots).
FIGS. 9A and 9B show examples of visualizations of dynamic prediction of the overall percentage of leukemic blasts. By showing the percentage of overall leukemic blasts (addition of all subclones) in graphs, the leukemic burden in BM can be visualized.

[1] = Patient peripheral blood / neutrophil recovery during treatment; assay type: in vivo, human; details: one patient, 4 cycles of low-dose treatment (FIG. 10A, 11A)
Excerpt: FIGS. 10A and 10B show examples of visual representations of dynamic prediction of peripheral blood recovery determined using the method according to embodiments.
FIGS. 11A and 11B show examples of visual representations of retrospective comparisons of dynamic prediction of absolute neutrophils count (lines) determined using the method according to embodiments and patient clinical assessment of daily neutrophils count during treatment (dots).
The patient initially presented with granulocytic dysplasia that delayed neutrophil recovery.

**Q.** Which treatment outcome (leukemic blasts; 2 cycles of low-dose treatment (FIG. 9A)) does the source give for `Nc1ccn([C@@H]2O[C@H](CO)[C@@H](O)[C@@H]2O)c(=O)n1` [Ara-C, Cytosine Arabinoside] here?
**A.** Its treatment outcome is “complete remission”.

**Q.** And the leukemic blasts (leukemic blasts; 2 cycles of low-dose treatment (FIG. 9A), bone marrow)?
**A.** Its leukemic blasts is less than 5%.

**Q.** What about the treatment outcome (leukemic blasts; 4 cycles of low-dose treatment (FIG. 10A, 11A)) of the same compound?
**A.** The treatment outcome was “complete remission”.

**Q.** What about the hematological recovery [1] of the same compound?
**A.** Its hematological recovery is “complete hematological recovery”.
